Experimental findings from ChEMBL document CHEMBL1275605, “Rapid assessment of antibacterial activity against Mycobacterium ulcerans by using recombinant luminescent strains” (2010) are described below.

Test [1] deals with Mycobacterium ulcerans. The test is described as follows: Antimicrobial activity against Mycobacterium ulcerans ATCC 19423 agar dilution method. It counts as functional.
In test [2] the test system is Mycobacterium ulcerans. Nature of the test: Antimicrobial activity against Mycobacterium ulcerans Cu001 agar dilution method. Type of test: functional. (Agar dilution tests growth on a series of plates holding different concentrations.)
The subject of test [3] is Mycobacterium ulcerans. The test is described as follows: Antimicrobial activity against Mycobacterium ulcerans 1059 harboring pTY60K carrying the luxAB gene under the hsp60 promoter agar dilution method. It counts as functional.
Test [4] deals with Mycobacterium ulcerans. Nature of the test: Antimicrobial activity against Mycobacterium ulcerans 1059 harboring pTY60K containing pMH94 carrying the luxAB gene under the hsp60 promoter after 14 days determined according to CFU count by bioluminescence method. Type of test: functional. Particulars: Mycobacterium ulcerans, 1059, 336 h.
The test system of test [5] is Mycobacterium ulcerans. Nature of the test: Antimicrobial activity against Mycobacterium ulcerans 1059 agar dilution method. Type of test: functional.
In test [6] the test system is Mycobacterium ulcerans. The test is described as follows: Antimicrobial activity against Mycobacterium ulcerans 1059 harboring pTY60K containing pMH94 carrying the luxAB gene under the hsp60 promoter after 14 days determined according to RLU count by real-time luminescence method. Type of test: functional. The settings on record: Mycobacterium ulcerans, 1059, 336 h.

Test [7] concerns Mycobacterium ulcerans. The test is described as follows: Antimicrobial activity against Mycobacterium ulcerans ATCC 19423 harboring pTY60K containing pMH94 carrying the luxAB gene under the hsp60 promoter after 7 days determined according to RLU count by real-time luminescence method. Type of test: functional. The settings on record: ATCC 19423, 168 h.
For test [8], the system named is Mycobacterium ulcerans. The test is described as follows: Antimicrobial activity against Mycobacterium ulcerans ATCC 19423 harboring pTY60K containing pMH94 carrying the luxAB gene under the hsp60 promoter after 7 days determined according to CFU count by bioluminescence method. It counts as functional. Particulars: ATCC 19423, 168 h.
The test system of test [9] is Mycobacterium ulcerans. The test is described as follows: Antimicrobial activity against Mycobacterium ulcerans ATCC 19423 harboring pTY60H carrying the luxAB gene under the hsp60 promoter agar dilution method. Type of test: functional.
The subject of test [10] is Mycobacterium ulcerans. The test is described as follows: Antimicrobial activity against Mycobacterium ulcerans ATCC 19423 harboring pTY60H containing pCK0601 carrying the luxAB gene under the hsp60 promoter after 14 days determined according to CFU counts by bioluminescence method. The settings on record: ATCC 19423, 336 h. It counts as functional.
For test [11], the system named is Mycobacterium ulcerans. Nature of the test: Antimicrobial activity against Mycobacterium ulcerans ATCC 19423 harboring pTY60H containing pCK0601 carrying the luxAB gene under the hsp60 promoter after 14 days determined according to RLU count by real-time luminescence method. It counts as functional. Particulars: ATCC 19423, 336 h.
Test [12] concerns Mycobacterium ulcerans. Nature of the test: Antimicrobial activity against Mycobacterium ulcerans ATCC 19423 harboring pTY60H assessed as 2-fold increase in reserpine-mediated inhibition of bacterial growth after 14 days. It counts as functional, organism-based.
Test [13] concerns Mycobacterium ulcerans. Nature of the test: Antimicrobial activity against Mycobacterium ulcerans ATCC 19423 harboring pTY60H carrying the luxAB gene under the hsp60 promoter determined after 14 days in presence of 2.5 ug/ml ATP-cassette transporter inhibitor reserpine. Type of test: functional, organism-based.
Test [14] deals with Mycobacterium ulcerans. Nature of the test: Antimicrobial activity against Mycobacterium ulcerans ATCC 19423 harboring pTY60H assessed as 4-fold increase in reserpine-mediated inhibition of bacterial growth after 14 days. Type of test: functional, organism-based.

Converted amounts (≈) assume the structure as drawn. The source made the active and inactive calls.

By MIC is commonly meant the smallest concentration in the dilution series that meets the test's criterion for growth inhibition. Read a high MIC as weaker potency.

As for `NC[C@H]1O[C@H](O[C@H]2[C@H](O)[C@@H](O[C@H]3O[C@H](CO)[C@@H](O)[C@H](N)[C@H]3O)[C@H](N)C[C@@H]2N)[C@H](O)[C@@H](O)[C@@H]1O` [KANAMYCIN], the MIC against Mycobacterium ulcerans [1] and against Mycobacterium ulcerans [2] was at most 5 µg/mL throughout.
Turning to `CC[C@H]1OC(=O)[C@H](C)[C@@H](O[C@H]2C[C@@](C)(OC)[C@@H](O)[C@H](C)O2)[C@H](C)[C@@H](O[C@@H]2O[C@H](C)C[C@H](N(C)C)[C@H]2O)[C@](C)(OC)C[C@@H](C)C(=O)[C@H](C)[C@@H](O)[C@]1(C)O` [CLARITHROMYCIN], the minimal inhibitory concentration (MIC) is 0.25 µg/mL (≈ 0.334 µM) with Mycobacterium ulcerans [3]; 0.25 µg/mL (≈ 0.334 µM) against Mycobacterium ulcerans [4]; 0.25 µg/mL (≈ 0.334 µM) against Mycobacterium ulcerans [5]; 0.13 µg/mL (≈ 0.174 µM) in the test on Mycobacterium ulcerans [6]; 0.13 µg/mL (≈ 0.174 µM) against Mycobacterium ulcerans [7]; 0.03 µg/mL (≈ 0.0401 µM) with Mycobacterium ulcerans [8].
Consider `COc1c(N2C[C@@H]3CCCN[C@@H]3C2)c(F)cc2c(=O)c(C(=O)O)cn(C3CC3)c12` [MOXIFLOXACIN], for which the minimal inhibitory concentration (MIC) in the test on Mycobacterium ulcerans [1] was at most 0.016 µg/mL; in the test with Mycobacterium ulcerans [4], over 0.25 µg/mL; with Mycobacterium ulcerans [5], over 0.5 µg/mL; against Mycobacterium ulcerans [9] it was 0.03 µg/mL (≈ 0.0747 µM); against Mycobacterium ulcerans [10] it was at most 0.03 µg/mL; in the test on Mycobacterium ulcerans [6], over 0.25 µg/mL. In addition, the MIC in the test with Mycobacterium ulcerans [11] is at most 0.03 µg/mL; against Mycobacterium ulcerans [7] it was 0.03 µg/mL (≈ 0.0747 µM); against Mycobacterium ulcerans [8], 0.03 µg/mL (≈ 0.0747 µM).
With `NNC(=O)c1ccncc1` [ISONIAZID], the minimal inhibitory concentration (MIC) against Mycobacterium ulcerans [4], against Mycobacterium ulcerans [5], in the test with Mycobacterium ulcerans [6], in the test with Mycobacterium ulcerans [7] and in the test on Mycobacterium ulcerans [8] was over 40 µg/mL in each case.
In the case of `CN[C@@H]1C[C@H](N)[C@@H](O)[C@H](O[C@H]2O[C@H](CO)[C@H](O)[C@@H]3O[C@@]4(O[C@@H]23)O[C@H]([C@H](N)CO)[C@H](O)[C@H](O)[C@H]4O)[C@H]1O` [HYGROMYCIN], the minimum inhibitory concentration (MIC) against Mycobacterium ulcerans [1] and in the test with Mycobacterium ulcerans [2] was at most 12.5 µg/mL each time.
With `CC(=O)NC[C@H]1CN(c2ccc(N3CCOCC3)c(F)c2)C(=O)O1` [LINEZOLID], the minimal inhibitory concentration (MIC) against Mycobacterium ulcerans [3] worked out at 1 µg/mL (≈ 2.96 µM); against Mycobacterium ulcerans [4], 4 µg/mL (≈ 11.9 µM); against Mycobacterium ulcerans [5], 1 µg/mL (≈ 2.96 µM); against Mycobacterium ulcerans [6] it was 2 µg/mL (≈ 5.93 µM); with Mycobacterium ulcerans [7] it was 1 µg/mL (≈ 2.96 µM); against Mycobacterium ulcerans [8] it was 1 µg/mL (≈ 2.96 µM).
As to `CN(C)[C@@H]1C(O)=C(C(N)=O)C(=O)[C@@]2(O)C(O)=C3C(=O)c4c(O)cccc4[C@@](C)(O)[C@H]3C[C@@H]12` [TETRACYCLINE], the MIC came to 10 µg/mL (≈ 22.5 µM) against Mycobacterium ulcerans [1], 5 µg/mL (≈ 11.3 µM) in the test on Mycobacterium ulcerans [9], 2.5 µg/mL (≈ 5.63 µM) against Mycobacterium ulcerans [10] and 2.5 µg/mL (≈ 5.63 µM) in the test with Mycobacterium ulcerans [11]. Besides, the result in the test with Mycobacterium ulcerans [12] and in the test on Mycobacterium ulcerans [13] was Active.
For the molecule `CO[C@H]1/C=C/O[C@@]2(C)Oc3c(C)c(O)c4c(O)c(c(/C=N/N5CCN(C)CC5)c(O)c4c3C2=O)NC(=O)/C(C)=C\C=C\[C@H](C)[C@H](O)[C@@H](C)[C@@H](O)[C@@H](C)[C@H](OC(C)=O)[C@@H]1C` [RIFAMPIN], the minimum inhibitory concentration (MIC) with Mycobacterium ulcerans [1] was 0.5 µg/mL (≈ 0.608 µM); against Mycobacterium ulcerans [3], 0.5 µg/mL (≈ 0.608 µM); in the test with Mycobacterium ulcerans [4], 0.03 µg/mL (≈ 0.0365 µM); in the test with Mycobacterium ulcerans [5] it was 0.13 µg/mL (≈ 0.158 µM); in the test on Mycobacterium ulcerans [9] it was 0.5 µg/mL (≈ 0.608 µM); in the test on Mycobacterium ulcerans [10] it was at most 0.03 µg/mL. The MIC was 0.06 µg/mL (≈ 0.0729 µM) against Mycobacterium ulcerans [6], at most 0.03 µg/mL in the test with Mycobacterium ulcerans [11], 0.03 µg/mL (≈ 0.0365 µM) in the test with Mycobacterium ulcerans [7] and at most 0.016 µg/mL against Mycobacterium ulcerans [8].
Take `CN[C@@H]1[C@H](O[C@H]2[C@H](O[C@H]3[C@H](O)[C@@H](O)[C@H](N=C(N)N)[C@@H](O)[C@@H]3N=C(N)N)O[C@@H](C)[C@]2(O)C=O)O[C@@H](CO)[C@H](O)[C@H]1O` [STREPTOMYCIN]: the minimal inhibitory concentration (MIC) came to 0.25 µg/mL (≈ 0.43 µM) against Mycobacterium ulcerans [1]; 0.25 µg/mL (≈ 0.43 µM) in the test with Mycobacterium ulcerans [3]; 0.13 µg/mL (≈ 0.224 µM) against Mycobacterium ulcerans [4]; 0.25 µg/mL (≈ 0.43 µM) in the test with Mycobacterium ulcerans [5]; 0.25 µg/mL (≈ 0.43 µM) against Mycobacterium ulcerans [9]; 1 µg/mL (≈ 1.72 µM) in the test with Mycobacterium ulcerans [10]. The MIC was 0.13 µg/mL (≈ 0.224 µM) with Mycobacterium ulcerans [6], 1 µg/mL (≈ 1.72 µM) against Mycobacterium ulcerans [11], 0.5 µg/mL (≈ 0.86 µM) in the test on Mycobacterium ulcerans [7] and 0.25 µg/mL (≈ 0.43 µM) in the test on Mycobacterium ulcerans [8].
Consider `CC[C@H]1OC(=O)[C@H](C)[C@@H](O[C@H]2C[C@@](C)(OC)[C@@H](O)[C@H](C)O2)[C@H](C)[C@@H](O[C@@H]2O[C@H](C)C[C@H](N(C)C)[C@H]2O)[C@](C)(O)C[C@@H](C)C(=O)[C@H](C)[C@@H](O)[C@]1(C)O` [ERYTHROMYCIN], for which the MIC in the test with Mycobacterium ulcerans [1] was over 16 µg/mL; in the test with Mycobacterium ulcerans [10], 1 µg/mL (≈ 1.36 µM); against Mycobacterium ulcerans [11], 0.5 µg/mL (≈ 0.681 µM). Moreover, the result in the test on Mycobacterium ulcerans [14] and with Mycobacterium ulcerans [13] was Active.
